Results on two molecules are retold here after patent US10799512B2, “Estrogen combination for treatment of multiple sclerosis” (The Regents of the University of California, priority 2014, dated 2020).

What all share (assay type): in vivo, human
A short description of series [1]: Estriol blood/serum levels in treated patients. The protocol:
(§1) Patients also underwent mammograms before and after the study.
Baseline characteristics were similar in both patient groups.
FIG. 6 depicts estriol blood levels induced by treatment with estriol 8 mg per day every day plus norethindrone 0.7 mg a day for 14 days every 3 months.

Series [2] has as its system female patients with active relapsing multiple sclerosis. Nature of the series: Safety and tolerability (gynecological and breast exams, adverse events). As to conditions: patients received Copaxone with estriol. The protocol:
158 patients were randomized to Copaxone® (glatiramer acetate) injections (20 mg/day) and oral estriol (8 mg/day) or to Copaxone® injections and placebo for a 24-month treatment duration. Gynecologists examined the patients before, during, and after the study. Each patient was examined at three- to six-month intervals during the trial. Patients also underwent mammograms before and after the study. In addition, at baseline, three months, six months, 12 months, 18 months, and 24 months, the investigators measured participants' estriol levels, and assessed for MS relapses and MS-related disabilities.
Baseline characteristics were similar in both patient groups. Participants' mean age at entry was approximately 38, and their mean EDSS score at entry was 2.2. […] To ensure breast and uterus safety, every three months the patients took norethindrone 0.7 mg once a day for 14 days.

The test system is the same in series [3]. Nature of the series: Expanded Disability Status Scale (EDSS). As to conditions: over 24 months.
Description: as §1
The Expanded Disability Status Scale (EDSS) is a standard composite disability score used in MS trials. Higher scores indicate worse disability. This composite covers a variety of disabilities (including ambulation, vision, cognition, coordination, etc.), but the scoring is not linear and the composite score is understood to be principally an indicator of the level of disability in ambulation.

For series [4] the test system is unchanged. In words: Timed 25-foot walk test. As to conditions: between-group difference p=0.02; higher time = worse.
Description: as §1
Another clinical disability measure with treatment effects was the timed 25-foot walk test. This test measures how many seconds it takes to walk 25 feet, with higher scores indicating worse disability. […] This beneficial effect of estriol treatment on 25-foot walking times is consistent with the beneficial effect of estriol treatment on EDSS scores since the latter is weighted toward being an indicator of ambulation.

For series [5] the test system is unchanged. In words: Brain MRI, gadolinium enhancing lesions. As to conditions: at month 12; p=0.14.
Description: as §1
Brain MRI is used extensively in MS as a surrogate marker for clinical effects. Brain white matter gadolinium enhancing lesions are a biomarker for relapses.

`C[C@]12CC[C@@H]3c4ccc(O)cc4CC[C@H]3[C@@H]1C[C@@H](O)[C@@H]2O` [estriol]: in series [1] (estriol 8 mg per day every day plus norethindrone 0.7 mg a day for 14 days every 3 months, FIG. 6), the “estriol blood levels induced” value is “about 10 ng/ml”. The “estriol levels in serum” value in series [1] (estriol-treated group, oral estriol 8 mg/day) is listed as “mid-pregnancy range”. Further, in series [2], the “Breast - Fibrocystic breast disease on clinical exam” value turned out to be 5 subjects and the “Uterine fibroids on ultrasound” value was 8 subjects.
Turning to “glatiramer acetate [Copaxone® plus placebo]”, the “EDSS scores, slope” value in series [3] (FIG. 4, p=0.06 (estriol), p=0.90 (placebo)) is recorded as −0.01. In addition, in series [3] (decrease = improvement), the “change in EDSS scores” value is “no change”. In series [4], the “change in 25-foot walk time” value is “significantly increased”. For the same molecule, the “reduction in number of subjects with brain MRI scans positive for enhancing lesions” value in series [5] is on record as 22%.
